Where a name gives a salt, the structure may show the parent alone.
Assays:
[1] = molecular target: thrombin (Bos taurus, UniProt P00735); experiment: Chromogenic assay, thrombin inhibition (substrate S2238); type: biochemical; conditions: in vitro; bovine thrombin; Ki calculated from substrate Km and IC50; pH 8.0, 30° C.
Protocol: (§1) The biological activities of the compounds of the present invention were determined by the following test methods.
(§2) The inhibition of thrombin, trypsin, plasmin or factor Xa is measured in 96 well plate chromogenic assays. The percentage inhibition and IC50 are calculated from triplicate samples of an 8 concentration dose-response curve. From the substrate Km and IC50, the Ki for each inhibitor is calculated. All assays are carried out in a total incubation of 200 μl of 50 mM HEPES and 150 mM NaCl at pH 8.0, and all compound dilutions are preincubated with enzyme at room temperature for 15 minutes prior to addition of substrate. After 30 minutes incubation at 30° C., the O.D. is measured at […] in a 96 well plate reader. Thrombin activity is measured using bovine thrombin and S2238 (H-D-Phe-Pip-Arg-pNA), bovine pancreatic trypsin is assayed with S2222 (Benz-Isoleu-Glu-Gly-Arg-pNA), bovine plasma plasmin is assayed with Chromozym PL (Tosyl-Gly-Pro-Lys-pNA)and bovine fac or Xa is assayed in 50 mM Tris, 150 mM NaCl, pH 7.5 buffer with S2222.

[2] = molecular target: T1, trypsin (Bos taurus, UniProt P00760); experiment: Chromogenic assay, trypsin inhibition (substrate S2222); type: biochemical; conditions: in vitro; bovine pancreatic trypsin; Ki calculated from substrate Km and IC50; pH 8.0, 30° C.
T1 construct: from tissue; host or cells: bovine pancreas
T1 sequence (P00760 24-246): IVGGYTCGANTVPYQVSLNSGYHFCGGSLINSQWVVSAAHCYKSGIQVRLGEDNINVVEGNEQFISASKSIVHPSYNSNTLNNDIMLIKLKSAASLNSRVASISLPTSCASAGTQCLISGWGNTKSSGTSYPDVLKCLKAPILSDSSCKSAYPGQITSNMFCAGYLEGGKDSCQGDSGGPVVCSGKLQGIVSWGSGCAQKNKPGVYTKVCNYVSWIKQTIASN
Protocol: as §1, §2

Ki [1] | Ki [2] | SMILES
1.9 nM | 2400 nM | C[C@@H]1CCN(C(=O)[C@H](CC2=CCCN(C(=N)N)C2)NS(=O)(=O)c2ccc3c(c2)CN(C)CC3)[C@H](C(=O)O)C1 [Example 5, 4(R)-Methyl-1-[N-(2-methyl-1,2,3,4-tetrahydroisoquinoline-7-sulphonyl)-3-(1-amidino-1,2,5,6-tetrahydro-3-pyridyl)-(S)-alanyl]piperidine-2(S-carboxylicacid dihydrochloride]
9.9 nM | 690 nM | C[C@H]1CCN(C(=O)[C@H](CC2=CCCN(C(=N)N)C2)NS(=O)(=O)c2ccc3c(c2)CN(C)CC3)[C@@H](C(=O)O)C1 [Example 6, 4(S)-Methyl-1-[N-(2-methyl-1,2,3,4-tetrahydroisoquinoline-7-sulphonyl)-3-(1-amidino-1,2,5,6-tetrahydro-3-pyridyl)-(S)-alanyl]piperidine-2(R)-carboxylic acid dihydrochloride]

Reference: patent US5798352A, “Antithrombotic amidinotetrahydropyridylalanine derivatives” (Pfizer Inc., priority 1995, dated 1998)
